This passage reports IC50 results from US10118930B2, “Piperidinylpyrazolopyrimidinones and their use” (BAYER PHARMA AKTIENGESELLSCHAFT, priority 2015, dated 2018).

This assay concerns clot lysis (fibrinolysis) in diluted human citrated plasma, tPA-induced. The assay can be described thus: Plasma-based clot lysis assay (5%). In kind it is biochemical. To be noted: human citrated platelet-poor plasma 5%, fibrinogen 3 μM, CaCl2 10 mM, tPA 0.2 nM, 37° C., OD at 405 nm. Put shortly:
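Clot formation and breakdown triggered by CaCl2 (10 mM final) plus tPA (0.2 nM final) at 37° C, in 5% diluted human plasma supplemented with 3 μM fibrinogen (HEPES/NaCl/Brij buffer, pH 7). IC50 obtained from time courses relative to a blank control.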

Structures can show the parent of a compound that is named as a salt.

Compound `COCc1nnc(-c2cnn3c(C4CCNCC4)cc(=O)[nH]c23)o1` [Example 173, 3-[5-(methoxymethyl)-1,3,4-oxadiazol-2-yl]-7-(piperidin-4-yl)pyrazolo[1,5-a]pyrimidin-5(4H)-one hydrochloride] returned a concentration for half-maximal inhibition (IC50) of 34 nM.
Same read-out and setting: the value for `O=c1cc(C2CCNCC2)n2ncc(-c3nnc(C4CC4)o3)c2[nH]1` [Example 174, 3-(5-cyclopropyl-1,3,4-oxadiazol-2-yl)-7-(piperidin-4-yl)pyrazolo[1,5-a]pyrimidin-5 (4H)-one hydrochloride] was 34 nM.
In turn, `O=c1cc(C2CCNCC2)n2ncc(-c3nnc(-c4cccc(C(F)(F)F)c4)o3)c2[nH]1` [Example 175, 7-(piperidin-4-yl)-3-{5-[3-(trifluoromethyl)phenyl]-1,3,4-oxadiazol-2-yl}pyrazolo[1,5-a]pyrimidin-5(4H)-one hydrochloride] displayed an IC50 of 35 nM.
Take `O=c1cc(C2CCNCC2)n2ncc(-c3nnc(C4CCCC4)o3)c2[nH]1` [Example 177, 3-(5-cyclopentyl-1,3,4-oxadiazol-2-yl)-7-(piperidin-4-yl)pyrazolo[1,5-a]pyrimidin-5(4H)-one hydrochloride]: the IC50 turned out to be 40 nM.
Still for that read-out and setting: the value for `O=c1cc(C2CCNCC2)n2ncc(-c3nnc(-c4ccco4)o3)c2[nH]1` [Example 178, 3-[5-(2-furyl)-1,3,4-oxadiazol-2-yl]-7-(piperidin-4-yl)pyrazolo[1,5-a]pyrimidin-5 (4H)-one hydrochloride] was 34 nM; that for `CC(C)(C)c1ccc(-c2nnc(-c3cnn4c(C5CCNCC5)cc(=O)[nH]c34)o2)cc1` [Example 179, 3-[5-(4-tert-butylphenyl)-1,3,4-oxadiazol-2-yl]-7-(piperidin-4-yl)pyrazolo[1,5-a]pyrimidin-5 (4H)-one hydrochloride] was 37 nM.
`O=c1cc(C2CCNCC2)n2ncc(-c3nnc(Cc4ccccc4)o3)c2[nH]1` [Example 180, 3-(5-benzyl-1,3,4-oxadiazol-2-yl)-7-(piperidin-4-yl)pyrazolo[1,5-a]pyrimidin-5(4H)-one hydrochloride] returned a 50% inhibitory concentration (IC50) of 35 nM.
Compound `O=c1cc(C2CCNCC2)n2ncc(-c3nnc(-c4ccc(Cl)cc4)o3)c2[nH]1` [Example 181, 3-[5-(4-chlorophenyl)-1,3,4-oxadiazol-2-yl]-7-(piperidin-4-yl)pyrazolo[1,5-a]pyrimidin-5(4H)-one hydrochloride] showed an IC50 of 28 nM.
`O=c1cc(C2CCNCC2)n2ncc(-c3nnc(CC4CCCCC4)o3)c2[nH]1` [Example 182, 3-[5-(cyclohexylmethyl)-1,3,4-oxadiazol-2-yl]-7-(piperidin-4-yl)pyrazolo[1,5-a]pyrimidin-5 (4H)-one hydrochloride] yielded a concentration for half-maximal inhibition (IC50) of 35 nM.
In turn, `O=c1cc(C2CCNCC2)n2ncc(-c3nnc(-c4ccncc4)o3)c2[nH]1` [Example 185, 7-(piperidin-4-yl)-3-[5-(pyridin-4-yl)-1,3,4-oxadiazol-2-yl]pyrazolo[1,5-a]pyrimidin-5 (4H)-one hydrochloride] returned an IC50 of 38 nM.
Compound `O=c1cc(C2CCNCC2)n2ncc(-c3nnc(-c4ccccc4F)o3)c2[nH]1` [Example 186, 3-[5-(2-fluorophenyl)-1,3,4-oxadiazol-2-yl]-7-(piperidin-4-yl)pyrazolo[1,5-a]pyrimidin-5(4H)-one hydrochloride] came in with an IC50 of 34 nM. This IC50 and that of the compound before are within 1.5-fold of each other.
On the same count and under the same terms, as for `Cc1nc(-c2ccccc2)sc1-c1cnn2c(C3CCNCC3)cc(=O)[nH]c12` [Example 187, 3-(4-methyl-2-phenyl-1,3-thiazol-5-yl)-7-(piperidin-4-yl)pyrazolo[1,5-a]pyrimidin-5(4H)-one hydrochloride], the figure is 35 nM; as for `O=c1cc(C2CCNCC2)n2ncc(-c3nc(-c4ccc(C(F)(F)F)nc4)no3)c2[nH]1` [Example 188, 7-(piperidin-4-yl)-3-{3-[6-(trifluoromethyl)pyridin-3-yl]-1,2,4-oxadiazol-5-yl}pyrazolo[1,5-a]pyrimidin-5(4H)-one hydrochloride], 35 nM; as for `O=c1cc(C2CCNCC2)n2ncc(-c3nc(-c4cnccc4C(F)(F)F)no3)c2[nH]1` [Example 189, 7-(piperidin-4-yl)-3-{3-[4-(trifluoromethyl)pyridin-3-yl]-1,2,4-oxadiazol-5-yl}pyrazolo[1,5-a]pyrimidin-5(4H)-one hydrochloride], 38 nM.
Still for that read-out and setting: the value for `O=c1cc(C2CCNCC2)n2ncc(-c3nc(-c4cc(F)c(F)cc4F)no3)c2[nH]1` [Example 190, 7-(piperidin-4-yl)-3-[3-(2,4,5-trifluorophenyl)-1,2,4-oxadiazol-5-yl]pyrazolo[1,5-a]pyrimidin-5 (4H)-one hydrochloride] was 34 nM; that for `CS(=O)(=O)Cc1noc(-c2cnn3c(C4CCNCC4)cc(=O)[nH]c23)n1` [Example 191, 3-{3-[(methylsulfonyl)methyl]-1,2,4-oxadiazol-5-yl}-7-(piperidin-4-yl)pyrazolo[1,5-a]pyrimidin-5(4H)-one hydrochloride] was 34 nM.
On to `O=c1cc(C2CCNCC2)n2ncc(-c3nc(CCCC(F)(F)F)no3)c2[nH]1` [Example 192, 7-(piperidin-4-yl)-3-[3-(4,4,4-trifluorobutyl)-1,2,4-oxadiazol-5-yl]pyrazolo[1,5-a]pyrimidin-5(4H)-one hydrochloride], for which half-maximal inhibition (IC50) was put at 34 nM.
Regarding `O=c1cc(C2CCNCC2)n2ncc(-c3nc(Cc4ccc(F)cc4Cl)no3)c2[nH]1` [Example 195, 3-[3-(2-chloro-4-fluorobenzyl)-1,2,4-oxadiazol-5-yl]-7-(piperidin-4-yl)pyrazolo[1,5-a]pyrimidin-5(4H)-one hydrochloride], half-maximal inhibition (IC50) required 35 nM.
On the same count and under the same terms, the value for `Cc1ccccc1Cc1noc(-c2cnn3c(C4CCNCC4)cc(=O)[nH]c23)n1` [Example 198, 3-[3-(2-methylbenzyl)-1,2,4-oxadiazol-5-yl]-7-(piperidin-4-yl)pyrazolo[1,5-a]pyrimidin-5(4H)-one hydrochloride] was 34 nM.
As to `CCc1noc(-c2cnn3c(C4CCNCC4)cc(=O)[nH]c23)n1` [Example 199, 3-(3-ethyl-1,2,4-oxadiazol-5-yl)-7-(piperidin-4-yl)pyrazolo[1,5-a]pyrimidin-5(4H)-one hydrochloride], the midpoint of inhibition (hydrochloride), the IC50, lay at 34 nM.
As to `NC(=O)c1noc(-c2cnn3c(C4CCNCC4)cc(=O)[nH]c23)n1` [Example 200, 5-[5-oxo-7-(piperidin-4-yl)-4,5-dihydropyrazolo[1,5-a]pyrimidin-3-yl]-1,2,4-oxadiazole-3-carboxamide hydrochloride], the IC50 was found to be 34 nM.
`CC(C)S(=O)(=O)Cc1noc(-c2cnn3c(C4CCNCC4)cc(=O)[nH]c23)n1` [Example 201, 3-{3-[(isopropylsulfonyl)methyl]-1,2,4-oxadiazol-5-yl}-7-(piperidin-4-yl)pyrazolo[1,5-a]pyrimidin-5(4H)-one hydrochloride] came in with an IC50 of 34 nM. This lies in the double-digit nanomolar range.
On the same count and under the same terms, as for `CN1CCC(Cc2noc(-c3cnn4c(C5CCNCC5)cc(=O)[nH]c34)n2)CC1` [Example 203, 3-{3-[(1-methylpiperidin-4-yl)methyl]-1,2,4-oxadiazol-5-yl}-7-(piperidin-4-yl)pyrazolo[1,5-a]pyrimidin-5(4H)-one hydrochloride], the figure is 34 nM.
On the same count and under the same terms, the value for `COC(=O)c1ccc(-c2noc(-c3cnn4c(C5CCNCC5)cc(=O)[nH]c34)n2)cc1` [Example 204, Methyl 4-{5-[5-oxo-7-(piperidin-4-yl)-4,5-dihydropyrazolo[1,5-a]pyrimidin-3-yl]-1,2,4-oxadiazol-3-yl}benzoate hydrochloride] was 35 nM; that for `O=c1cc(C2CCNCC2)n2ncc(-c3nc(-c4cccc([N+](=O)[O-])c4)no3)c2[nH]1` [Example 205, 3-[3-(3-nitrophenyl)-1,2,4-oxadiazol-5-yl]-7-(piperidin-4-yl)pyrazolo[1,5-a]pyrimidin-5(4H)-one hydrochloride] was 35 nM.
As to `Nc1cccc(-c2noc(-c3cnn4c(C5CCNCC5)cc(=O)[nH]c34)n2)c1` [Example 208, 3-[3-(3-aminophenyl)-1,2,4-oxadiazol-5-yl]-7-(piperidin-4-yl)pyrazolo[1,5-a]pyrimidin-5 (4H)-one hydrochloride], the IC50 amounted to 55 nM.
`O=c1cc(C2CCNCC2)n2ncc(-c3nc(Cc4ccccc4Cl)no3)c2[nH]1` [Example 209, 3-[3-(2-chlorobenzyl)-1,2,4-oxadiazol-5-yl]-7-(piperidin-4-yl)pyrazolo[1,5-a]pyrimidin-5(4H)-one hydrochloride] had an IC50 of 36 nM.
Still for that read-out and setting: the value for `O=c1cc(C2CCNCC2)n2ncc(-c3nc(Cc4ccc(Cl)cc4)no3)c2[nH]1` [Example 210, 3-[3-(4-chlorobenzyl)-1,2,4-oxadiazol-5-yl]-7-(piperidin-4-yl)pyrazolo[1,5-a]pyrimidin-5(4H)-one hydrochloride] was 34 nM; that for `NCc1noc(-c2cnn3c(C4CCNCC4)cc(=O)[nH]c23)n1` [Example 212, 3-[3-(aminomethyl)-1,2,4-oxadiazol-5-yl]-7-(piperidin-4-yl)pyrazolo[1,5-a]pyrimidin-5 (4H)-one hydrochloride] was 58 nM.
Still for that read-out and setting: as for `O=c1cc(C2CCNCC2)n2ncc(-c3nc(Cc4ccc(Cl)c(Cl)c4)no3)c2[nH]1` [Example 213, 3-[3-(3,4-dichlorobenzyl)-1,2,4-oxadiazol-5-yl]-7-(piperidin-4-yl)pyrazolo[1,5-a]pyrimidin-5 (4H)-one hydrochloride], the figure is 30 nM; as for `Cc1ccc(Cc2noc(-c3cnn4c(C5CCNCC5)cc(=O)[nH]c34)n2)cc1` [Example 214, 3-[3-(4-methylbenzyl)-1,2,4-oxadiazol-5-yl]-7-(piperidin-4-yl)pyrazolo[1,5-a]pyrimidin-5(4H)-one hydrochloride], 32 nM; as for `CC(c1ccccc1)c1noc(-c2cnn3c(C4CCNCC4)cc(=O)[nH]c23)n1` (centres unmarked) [Example 215, 3-[3-(1-phenylethyl)-1,2,4-oxadiazol-5-yl]-7-(piperidin-4-yl)pyrazolo[1,5-a]pyrimidin-5(4H)-one hydrochloride], 34 nM.
